Experimental data reported in US20220240499A1, “COMPOSITION AND METHOD FOR CRYOPRESERVATION OF CELLS” (Regents of the University of Minnesota, priority 2019, published 2022).
Where a SMILES comes first, the peptide text is derived from it. The star is where a group is joined. Cbz = O=C(OCc1ccccc1)*; CH2F = FC*

What was measured:
iPS cell aggregates [1] = assay: Screening of osmolytes for wash-free cryopreservation (cytotoxicity limits by cell reattachment); details: 300 mM, 30 min, in HBSS at room temperature; observed 24 hours later
Procedure: Different types of sugars (disaccharides) and sugar alcohols (all BioUltra or PharmaGrade, Sigma-Aldrich) were individually tested for cytotoxicity limits based on its effect on cell reattachment. In consideration for pre-freeze cell processing, each molecule of a given concentration among 300 mM, 150 mM, and 75 mM was used to incubate cell aggregates suspended in HBSS at room temperature for 30 minutes or 1 hour. Then, in consideration of wash-free thawing at minimum dilution ratio of 2, each sample of cell aggregates were mixed at 1:1 volume ratio with E8 media and plated on vitronectin-coated culture vessel. 24 hours later, cell reattachment was observed qualitatively under a Nikon TMS inverted phase contrast microscope. Disaccharides included sucrose, trehalose, maltose, and lactose.

iPS cell aggregates [2] = assay: Post-thaw cell reattachment (calcein AM, 24 h post-thaw) after controlled-rate freezing, development of buffer and additives; type: cell-based, human; details: 100%: same as DMSO control; for Post-thaw reattachment rate of cell aggregates buffered in HBSS: HBSS buffer; for Post-thaw reattachment rate of cell aggregates buffered in PBS++: PBS++ buffer
Procedure: Cells were dissociated using ReLeSR™ and harvested as aggregates without centrifugation in the basal solution at cell concentration of ˜ 3×10^6/ml. Suspension of cell aggregates was loaded into cryovials (Nunc CryoTube, ThermoFisher Scientific) for 0.5 ml/vial. 2× cryopreservation solution was introduced to the cells dropwise for 0.5 ml/vial. Cells were then incubated at room temperature for exactly 30 min before freezing.
Cryovials of cells were frozen using a controlled-rate freezer (Kryo 10 Series III from Planer PLC in Middlesex, UK) following the steps listed below using a cooling rate, B, of 1° C./min and a seeding (or ice nucleation) temperature, TNUC, of −4° C.: • 1. Starting temperature 20° C. • 2. −10° C./min to 0° C. • 3. Hold at 0° C. for 10 min to equilibrate temperature inside and outside cryovials • 4. −1° C./min to −4° C. • 5. Hold at −4° C. for 15 min • 6. Induce ice nucleation when cryovial internal temperature reaches −4° C. towards the end of step 5 • 7. −1° C./min to −60° C. • 8. −10° C./min to −100° C.
Frozen cryovials were thawed in a 37° C. water bath. The cryovial was submerged below the lid and agitated for 2.5 min.
E8 media, either with or without apoptosis inhibitors, was added to the thawed suspension of cell aggregates using a flow rate of ˜ 1 ml/min. Dilution factor of 2 was used, meaning each cryovial of cells was used to produce 1 well of a 6-well plate of post-thaw cell culture. Diluted cells were seeded onto a freshly coated culture vessel and placed in 5% CO2 at 37° C. incubator undisturbed for 24 h.
Ability of cryopreserved cells to re-establish culture after thawing was assessed based on a metric of post-thaw cell reattachment. Thawed cells were plated at a specified split ratio. After 24 h, post-thaw culture was washed and stained for live cells with esterase activity using cell permeant dye calcein AM (ThermoFisher Scientific). Live cells in each sample were quantified using a Synergy HT microplate reader (BioTek) in scan mode based on mean fluorescence intensity. Fluorescence measurement was normalized to controls, which were either fresh cells passaged with the same cell density or cells cryopreserved with the same pre-freeze cell concentration using a DMSO-based control formulation, to determine the value of post-thaw cell reattachment for each sample in arbitrary unit.
Controlled-rate freezing protocol remained constant with a cooling rate of 1° C./min and an ice nucleation temperature of −4° C.
(§1) Different forms of cellular damage were identified. Low-temperature spectroscopy was conducted as described earlier to characterize the formation of intracellular ice at −50° C. Both pre-freeze and post-thaw, cells were stained for ROS and free radicals using H2DCFDA (ROS Detection Assay Kit, BioVision) at 37° C. for 45 min to characterize oxidative stress by immunofluorescence and microplate assay. Thawed cells were also stained for caspase enzyme activity using FAM-FLICA (from ImmunoChemistry Technologies, LLC in Bloomington, Minn.) to detect apoptosis. Size of cell aggregates post-thaw was observed visually. Post-thaw cell recovery, reattachment and proliferation were measured as described earlier. Cells cryopreserved using 10% DMSO in PBS++ was used as a control. Brightfield and fluorescent images were acquired using a Carl Zeiss Axioskop 50 with a 10× air objective (NA 0.30, Plan-Neofluar, Carl Zeiss) or a 20× air objective (NA 0.50, Plan-Neofluar, Carl Zeiss) and a Spot Insight Firewire 2 Camera. Microplate assay was quantified using a Synergy HT microplate reader (BioTek).
Different types of additives were tested. P188 5% w/v was added to both the basal solution and the 2× cryopreservation solution to stabilize cell membrane. 2× NEAA was added pre-freeze to the 2× cryopreservation solution to conserve cellular energy. […]

iPS cell aggregates [3] = assay: Cell proliferation of post-thaw culture from 24 to 48 h; type: cell-based, human; details: 1: no net change in total live cell count in culture
Procedure: as §1
Different types of additives were tested. P188 5% w/v was added to both the basal solution and the 2× cryopreservation solution to stabilize cell membrane. 2× NEAA was added pre-freeze to the 2× cryopreservation solution to conserve cellular energy. The following molecules were used to target general or specific apoptosis pathways and added at the given working concentration either pre-freeze or post-thaw: 10 μM rho kinase inhibitor (or ROCK inhibitor, Y-27632, […] Technologies), 20 μM pan caspase inhibitor (Z-VAD-FMK, from ApexBio Technology LLC in Houston, Tex.), 1 μg/ml Fas ligand inhibitor (Recombinant Human Fas/TNFRSF6-Fc Chimera from BioLegend in San Diego, Calif.), 100 ng/ml each of TNF-related apoptosis-inducing ligand (TRAIL) inhibitors targeting TRAIL receptor 1 (Recombinant Human TNFRSF10A-Fc Chimera, BioLegend), TRAIL receptor 2 (Recombinant Human TNFRSF10B-Fc Chimera, BioLegend), and TRAIL receptor 4 (Recombinant Human TNFRSF10D-Fc Chimera, BioLegend) respectively.

In the case of ethylene glycol, the “Conditions and observation: cell reattachment after incubation” value (iPS cell aggregates [1]) is reported as “many colonies, normal morphology”.
In the case of `COC(=O)C[C@H](NC(=O)[C@H](C)NC(=O)[C@@H](NC(=O)OCc1ccccc1)C(C)C)C(=O)CF` [Pan caspase, Z-VAD-FMK] (Cbz-Val-Ala-Asp(OMe)-CH2F), the “Post-thaw reattachment rate of cell aggregates buffered in HBSS” value (“Post-thaw reattachment rate … in HBSS” below) (iPS cell aggregates [2]; inhibitor added post-thaw) is reported as 100%, the “Post-thaw reattachment rate of cell aggregates buffered in PBS++” value (from here on “Post-thaw reattachment rate … in PBS++”) (iPS cell aggregates [2]; inhibitor added post-thaw) is reported as 30% and the “Post-thaw reattachment rate … in PBS++” value (iPS cell aggregates [2]; inhibitor added pre-freeze) is reported as 15%. The “Cell proliferation of culture cryopreserved in HBSS from 24 to 48 h post-thaw” value (from here on “Cell proliferation”) (iPS cell aggregates [3]; inhibitors added post-thaw) was 3.312.
For Fas ligand, the “Post-thaw reattachment rate … in HBSS” value (iPS cell aggregates [2]; inhibitor added post-thaw) was 106%, the “Post-thaw reattachment rate … in HBSS” value (iPS cell aggregates [2]; inhibitor added pre-freeze) was 76% and the “Post-thaw reattachment rate … in PBS++” value (iPS cell aggregates [2]; inhibitor added post-thaw) was 62%. The “Post-thaw reattachment rate … in PBS++” value (iPS cell aggregates [2]; inhibitor added pre-freeze) was 45%, the “Cell proliferation” value (iPS cell aggregates [3]; inhibitors added post-thaw) was 1.749 and the “Cell proliferation” value (iPS cell aggregates [3]; inhibitors added pre-freeze) was 1.713.
`C[C@@H](N)[C@H]1CC[C@H](C(=O)Nc2ccncc2)CC1` [Rho kinase, Y-27632] was tested, and the “Post-thaw reattachment rate … in HBSS” value (iPS cell aggregates [2]; inhibitor added pre-freeze) was 104%, the “Post-thaw reattachment rate … in PBS++” value (iPS cell aggregates [2]; inhibitor added post-thaw) was 11% and the “Post-thaw reattachment rate … in PBS++” value (iPS cell aggregates [2]; inhibitor added pre-freeze) was 109%. The “Cell proliferation” value (iPS cell aggregates [3]; inhibitors added pre-freeze) was 0.967.
